Patent US11712434B2, “Compound having anti-cancer effect, and preparation method therefor and use thereof” (3D MEDICINES (BEIJING) CO., LTD., priority 2016, dated 2023)
Blank lines part the entries; values can stand above or below the molecule they belong to.

Tests used:
Experiment in all cases: Cell proliferation assay (Alamar Blue)
Format in all cases: cell-based
[1] = tested on: T.T; conditions: T.T tumor cell line, 6 days culture
Outline: (§1)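 Six-day continuous exposure of log-phase cells to a 9-point compound series (3.16-fold steps from 100 or 30 μM). Residual viability was read by AlamarBlue fluorescence at 560/590 nm. IC50 came from four-parameter curve fitting.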

[2] = tested on: NCI-H526; conditions: NCI-H526 tumor cell line, 6 days culture
Outline: as §1

[3] = tested on: JHH6; conditions: JHH6 liver cancer cell line, 6 days culture
Outline: as §1

[4] = tested on: SNU398; conditions: SNU398 liver cancer cell line, 6 days culture
Outline: as §1

[5] = tested on: SK-HEP-1; conditions: SK-HEP-1 liver cancer cell line, 6 days culture
Outline: as §1

[6] = tested on: HUH7; conditions: HUH7 liver cancer cell line, 6 days culture
Outline: as §1

[7] = tested on: Alexander cells; conditions: Alexander cells liver cancer cell line, 6 days culture
Outline: as §1

[8] = tested on: NCI-H716; conditions: NCI-H716 tumor cell line, 6 days culture
Outline: as §1

[9] = tested on: SNU886; conditions: SNU886 liver cancer cell line, 6 days culture
Outline: as §1

[10] = tested on: TE-15; conditions: TE-15 tumor cell line, 6 days culture
Outline: as §1

[11] = tested on: SNU449; conditions: SNU449 liver cancer cell line, 6 days culture
Outline: as §1

[12] = tested on: TE-6; conditions: TE-6 tumor cell line, 6 days culture
Outline: as §1

[13] = tested on: 22RV1; conditions: 22RV1 tumor cell line, 6 days culture
Outline: as §1

[14] = tested on: K562; conditions: K562 tumor cell line, 6 days culture
Outline: as §1

[15] = tested on: HUH1; conditions: HUH1 liver cancer cell line, 6 days culture
Outline: as §1

[16] = tested on: HLE; conditions: HLE liver cancer cell line, 6 days culture
Outline: as §1

[17] = tested on: HT1080; conditions: HT1080 tumor cell line, 6 days culture
Outline: as §1

[18] = tested on: HT55; conditions: HT55 tumor cell line, 6 days culture
Outline: as §1

[19] = tested on: MDA-MB-435S; conditions: MDA-MB-435S tumor cell line, 6 days culture
Outline: as §1

[20] = tested on: LC-2-ad; conditions: LC-2-ad tumor cell line, 6 days culture
Outline: as §1

[21] = tested on: MDA-MB-231; conditions: MDA-MB-231 tumor cell line, 6 days culture
Outline: as §1

[22] = tested on: SNU739; conditions: SNU739 liver cancer cell line, 6 days culture
Outline: as §1

[23] = tested on: AN3CA; conditions: AN3CA tumor cell line, 6 days culture
Outline: as §1

[24] = tested on: MG63; conditions: MG63 tumor cell line, 6 days culture
Outline: as §1

[25] = tested on: SNU354; conditions: SNU354 liver cancer cell line, 6 days culture
Outline: as §1

[26] = tested on: Hep3B2.1-7; conditions: Hep3B2.1-7 liver cancer cell line, 6 days culture
Outline: as §1

[27] = tested on: HLF; conditions: HLF liver cancer cell line, 6 days culture
Outline: as §1

IC50 ([2]; Homo sapiens, 144 h): 7.45 µM | IC50 ([4]; Homo sapiens, SNU-398, 144 h): 1.75 µM | IC50 ([5]; Homo sapiens, SK-HEP1, 144 h): 16.6 µM | IC50 ([6]; Homo sapiens, Huh-7, 144 h): 2.89 µM | IC50 ([8]; Homo sapiens, 144 h): 5.49 µM | IC50 ([9]; SNU-886, 144 h): 7.24 µM | IC50 ([11]; Homo sapiens, SNU-449, 144 h): 16.5 µM | IC50 ([13]; Homo sapiens, 144 h): 8.16 µM | IC50 ([14]; Homo sapiens, 144 h): 17.2 µM | IC50 ([15]; Homo sapiens, HuH-1, 144 h): 4.67 µM | IC50 ([17]; Homo sapiens, HT-1080, 144 h): 10.4 µM | IC50 ([19]; Homo sapiens, 144 h): 10.5 µM | IC50 ([21]; Homo sapiens, 144 h): 7.61 µM | IC50 ([22]; SNU-739, 144 h): 7.63 µM | IC50 ([25]; Homo sapiens, SNU-354, 144 h): 3.59 µM | IC50 ([26]; 144 h): 3.29 µM
SMILES: Cc1ccc(F)c(NC(=O)Nc2ccc(-c3cccc4[nH]nc(NC(=O)C[C@H](N)C(=O)N[C@@H](CCC(=O)O)C(=O)O)c34)cc2)c1 [Compound 1]
IC50 ([1]; Homo sapiens, TT, 144 h): 9.24 µM | IC50 ([3]; 144 h): 6.57 µM | IC50 ([7]; 144 h): 4.01 µM | IC50 ([10]; Homo sapiens, 144 h): 2.94 µM | IC50 ([12]; Homo sapiens, 144 h): 10.5 µM | IC50 ([16]; Homo sapiens, 144 h): 2.84 µM | IC50 ([18]; Homo sapiens, 144 h): 24.7 µM | IC50 ([20]; Homo sapiens, 144 h): 3.52 µM | IC50 ([23]; Homo sapiens, AN3-CA, 144 h): 0.34 µM | IC50 ([24]; Homo sapiens, MG-63, 144 h): 2.34 µM | IC50 ([27]; 144 h): 5.24 µM

IC50 ([2]; Homo sapiens, 144 h): 11.3 µM | IC50 ([4]; Homo sapiens, SNU-398, 144 h): 4.63 µM | IC50 ([5]; Homo sapiens, SK-HEP1, 144 h): 31 µM | IC50 ([6]; Homo sapiens, Huh-7, 144 h): 6.33 µM | IC50 ([8]; Homo sapiens, 144 h): 10.8 µM | IC50 ([9]; SNU-886, 144 h): 16.9 µM | IC50 ([11]; Homo sapiens, SNU-449, 144 h): 25.7 µM | IC50 ([13]; Homo sapiens, 144 h): 11.5 µM | IC50 ([14]; Homo sapiens, 144 h): 29.5 µM | IC50 ([15]; Homo sapiens, HuH-1, 144 h): 7.26 µM | IC50 ([17]; Homo sapiens, HT-1080, 144 h): 24.9 µM | IC50 ([19]; Homo sapiens, 144 h): 18.6 µM | IC50 ([21]; Homo sapiens, 144 h): 12.4 µM | IC50 ([22]; SNU-739, 144 h): 11.3 µM | IC50 ([25]; Homo sapiens, SNU-354, 144 h): 8.62 µM | IC50 ([26]; 144 h): 6.32 µM
SMILES: Cc1ccc(F)c(NC(=O)Nc2ccc(-c3cccc4[nH]nc(NC(=O)C[C@H](N)C(=O)N[C@@H](CCC(=O)N[C@@H](CCC(=O)N[C@@H](CCC(=O)N[C@@H](CCC(=O)O)C(=O)O)C(=O)O)C(=O)O)C(=O)O)c34)cc2)c1 [Compound 2]
IC50 ([1]; Homo sapiens, TT, 144 h): 16.9 µM | IC50 ([3]; 144 h): 10.9 µM | IC50 ([7]; 144 h): 7.11 µM | IC50 ([10]; Homo sapiens, 144 h): 7.29 µM | IC50 ([12]; Homo sapiens, 144 h): 27.6 µM | IC50 ([16]; Homo sapiens, 144 h): 6.47 µM | IC50 ([18]; Homo sapiens, 144 h): 40.1 µM | IC50 ([20]; Homo sapiens, 144 h): 6.37 µM | IC50 ([23]; Homo sapiens, AN3-CA, 144 h): 0.73 µM | IC50 ([24]; Homo sapiens, MG-63, 144 h): 5.49 µM | IC50 ([27]; 144 h): 10.8 µM

IC50 [2]: > 100 µM | IC50 [4]: > 100 µM | IC50 [5]: > 100 µM | IC50 [6]: > 100 µM | IC50 [8]: 82.7 µM | IC50 [9]: > 100 µM | IC50 [11]: > 100 µM | IC50 [13]: > 100 µM | IC50 [14]: > 100 µM | IC50 [15]: > 100 µM | IC50 [17]: > 100 µM | IC50 [19]: > 100 µM | IC50 [21]: > 100 µM | IC50 [22]: > 100 µM | IC50 [25]: > 100 µM | IC50 [26]: > 100 µM
SMILES: Cc1ccc(F)c(NC(=O)Nc2ccc(-c3cccc4[nH]nc(NC(=O)CCCCCNC(=O)C[C@H](N)C(=O)N[C@@H](CCC(=O)O)C(=O)O)c34)cc2)c1 [Compound 4]
IC50 [1]: > 100 µM | IC50 [3]: > 100 µM | IC50 [7]: > 100 µM | IC50 [10]: > 100 µM | IC50 [12]: > 100 µM | IC50 [16]: > 100 µM | IC50 [18]: > 100 µM | IC50 [20]: > 100 µM | IC50 [23]: 24.9 µM | IC50 [24]: > 100 µM | IC50 [27]: > 100 µM
